Data reported in BindingDB's records for patent US20260034094 (Kojin Therapeutics, 2026).

The compounds below were run against T1, Glutamate--cysteine ligase catalytic subunit (Homo sapiens, UniProt P48506) (assay: GCL Enzyme Profiling Assay).
T1 sequence (P48506 whole entry): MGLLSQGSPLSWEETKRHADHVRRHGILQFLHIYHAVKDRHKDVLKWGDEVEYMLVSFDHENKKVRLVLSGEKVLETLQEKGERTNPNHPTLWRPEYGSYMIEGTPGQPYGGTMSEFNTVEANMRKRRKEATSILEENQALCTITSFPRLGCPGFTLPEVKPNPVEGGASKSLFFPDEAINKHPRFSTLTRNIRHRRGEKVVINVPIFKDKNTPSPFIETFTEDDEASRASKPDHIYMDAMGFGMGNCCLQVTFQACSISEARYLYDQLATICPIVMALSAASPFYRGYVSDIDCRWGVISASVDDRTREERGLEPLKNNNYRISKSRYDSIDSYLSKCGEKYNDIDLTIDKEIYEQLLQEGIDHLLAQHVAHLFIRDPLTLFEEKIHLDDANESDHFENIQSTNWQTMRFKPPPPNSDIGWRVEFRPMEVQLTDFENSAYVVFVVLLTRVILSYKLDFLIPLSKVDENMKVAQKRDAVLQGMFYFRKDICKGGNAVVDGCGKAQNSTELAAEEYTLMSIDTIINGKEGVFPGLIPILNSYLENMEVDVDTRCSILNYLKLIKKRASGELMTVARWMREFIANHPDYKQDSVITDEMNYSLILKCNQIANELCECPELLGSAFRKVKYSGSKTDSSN
Experimental: Compound in pure DMSO was stamped in assay plates (Greiner black 384-well) or appropriate containers using a D300e digital dispenser (TECAN) and the final DMSO concentration was normalized to 1%. A 5 mL, or in the present case, 5 μL mixture of human recombinant GCL (final concentration: 5 nM) and ATP (final concentration: 0.6 mM) was added and the solution was incubated at room temperature (22° C.) for 1 h. […] The reaction was stopped after 1 h or in the present case, 2 h by addition of 5 mL, or in the present case, 5 μL ADP GLO Reagent (Promega). The resulting solution was incubated for 2 h at room temperature. This was then followed by addition of 5 mL, or in the present case, 5 μL ADP GLO Detection. After incubation at room temperature for 30 min, the plates were read on a plate reader (PheraStar) using a luminescence protocol to quantify the GCL enzyme activity from each reaction solution.
N=S(=O)(CCc1cccc(Cl)c1F)CC[C@H](N)C(=O)O (some centres undefined) [US20260034094, Compound 28] was tested, and the IC50 was < 20 µM. CC(C)(C)CCS(=N)(=O)CC[C@H](N)C(=O)Nc1nccs1 (some centres undefined) [US20260034094, Compound 121] was tested, and the IC50 was > 2000 µM. N=S(=O)(CCC(c1ccc(-c2ccccc2F)cc1)C(F)(F)F)CC[C@H](N)C(=O)O (some centres undefined) [US20260034094, Compound 217] was tested, and the IC50 was < 20 µM. In the case of N=S(=O)(CCC(c1ccc(C2CC2)cc1)C(F)(F)F)CC[C@H](N)C(=O)O (some centres undefined) [US20260034094, Compound 225], the IC50 is reported as < 20 µM. N=S(=O)(CCC(c1ccc(-c2ccc(Br)cc2)cc1)C(F)(F)F)CC[C@H](N)C(=O)O (some centres undefined) [US20260034094, Compound 226] was tested, and the IC50 was < 20 µM. In the case of N=S(=O)(CCC(c1ccc(-c2cn[nH]c2)cc1)C(F)(F)F)CC[C@H](N)C(=O)O (some centres undefined) [US20260034094, Compound 227], the IC50 is reported as < 20 µM. In the case of N=S(=O)(CCC(c1ccc(-c2cc[nH]n2)cc1)C(F)(F)F)CC[C@H](N)C(=O)O (some centres undefined) [US20260034094, Compound 228], the IC50 is reported as < 20 µM. In the case of N=S(=O)(CCC(c1ccc(-c2cccc(C(N)=O)c2)cc1)C(F)(F)F)CC[C@H](N)C(=O)O (some centres undefined) [US20260034094, Compound 229], the IC50 is reported as < 20 µM. For CNC(=O)c1cccc(-c2ccc(C(CCS(=N)(=O)CC[C@H](N)C(=O)O)C(F)(F)F)cc2)c1 (some centres undefined) [US20260034094, Compound 230], the IC50 was < 20 µM. For N=S(=O)(CCC(c1ccc(-c2ccc(C(F)F)cc2)cc1)C(F)(F)F)CC[C@H](N)C(=O)O (some centres undefined) [US20260034094, Compound 231], the IC50 was < 20 µM. With N=S(=O)(CCC(c1ccc(-c2ccccc2O)cc1)C(F)(F)F)CC[C@H](N)C(=O)O (some centres undefined) [US20260034094, Compound 235] the IC50 was < 20 µM. CC(C)(O)c1cccc(-c2ccc(C(CCS(=N)(=O)CC[C@H](N)C(=O)O)C(F)(F)F)cc2)c1 (some centres undefined) [US20260034094, Compound 241] was tested, and the IC50 was < 20 µM. In the case of N=S(=O)(CCC(c1ccc(-c2cccnc2)cc1)C(F)(F)F)CC[C@H](N)C(=O)O (some centres undefined) [US20260034094, Compound 243], the IC50 is reported as < 20 µM. N=S(=O)(CCC(c1ccc(-c2ccc(C(N)=O)nc2)cc1)C(F)(F)F)CC[C@H](N)C(=O)O (some centres undefined) [US20260034094, Compound 245] was tested, and the IC50 was < 20 µM. Cc1ccc(-c2ccc(C(CCS(=N)(=O)CC[C@H](N)C(=O)O)C(F)(F)F)cc2)cn1 (some centres undefined) [US20260034094, Compound 246] was tested, and the IC50 was < 20 µM. Cc1nc(Cl)ccc1-c1ccc(C(CCS(=N)(=O)CC[C@H](N)C(=O)O)C(F)(F)F)cc1 (some centres undefined) [US20260034094, Compound 248] was tested, and the IC50 was < 20 µM. CN1CCN(c2ccc(-c3ccc(C(CCS(=N)(=O)CC[C@H](N)C(=O)O)C(F)(F)F)cc3)cn2)CC1 (some centres undefined) [US20260034094, Compound 249] was tested, and the IC50 was < 20 µM. With N=S(=O)(CCC(c1ccc(-c2cnc(N)nc2)cc1)C(F)(F)F)CC[C@H](N)C(=O)O (some centres undefined) [US20260034094, Compound 251] the IC50 was < 20 µM. N=S(=O)(CCC(c1ccc(-c2cnc(C3CC3)nc2)cc1)C(F)(F)F)CC[C@H](N)C(=O)O (some centres undefined) [US20260034094, Compound 252] was tested, and the IC50 was < 20 µM. In the case of N=S(=O)(CCC(c1ccc(-c2cnc3[nH]ccc3c2)cc1)C(F)(F)F)CC[C@H](N)C(=O)O (some centres undefined) [US20260034094, Compound 253], the IC50 is reported as < 20 µM. For N=S(=O)(CCC(c1ccc(-c2cnc3[nH]ncc3c2)cc1)C(F)(F)F)CC[C@H](N)C(=O)O (some centres undefined) [US20260034094, Compound 254], the IC50 was < 20 µM. With N=S(=O)(CCC(c1ccc(-c2ccc3cn[nH]c3c2)cc1)C(F)(F)F)CC[C@H](N)C(=O)O (some centres undefined) [US20260034094, Compound 255] the IC50 was < 20 µM. For N=S(=O)(CCC(c1ccc(-c2ccc(Cl)s2)cc1)C(F)(F)F)CC[C@H](N)C(=O)O (some centres undefined) [US20260034094, Compound 256], the IC50 was < 20 µM. With N=S(=O)(CCC(c1ccc(-c2ccsc2)cc1)C(F)(F)F)CC[C@H](N)C(=O)O (some centres undefined) [US20260034094, Compound 257] the IC50 was < 20 µM. N=S(=O)(CCC(c1ccc(-c2ccoc2)cc1)C(F)(F)F)CC[C@H](N)C(=O)O (some centres undefined) [US20260034094, Compound 258] was tested, and the IC50 was < 20 µM. In the case of N=S(=O)(CCC(c1ccc(C2=CCNCC2)cc1)C(F)(F)F)CC[C@H](N)C(=O)O (some centres undefined) [US20260034094, Compound 259], the IC50 is reported as < 20 µM. In the case of C=C(c1ccc(C(CCS(=N)(=O)CC[C@H](N)C(=O)O)C(F)(F)F)cc1)C(F)(F)F (some centres undefined) [US20260034094, Compound 260], the IC50 is reported as < 20 µM. With C=Cc1ccc(C(CCS(=N)(=O)CC[C@H](N)C(=O)O)C(F)(F)F)cc1 (some centres undefined) [US20260034094, Compound 261] the IC50 was < 20 µM. For C=C(C)c1ccc(C(CCS(=N)(=O)CC[C@H](N)C(=O)O)C(F)(F)F)cc1 (some centres undefined) [US20260034094, Compound 262], the IC50 was < 20 µM. For CC(C)(O)c1ccc(C(CCS(=N)(=O)CC[C@H](N)C(=O)O)C(F)(F)F)cc1 (some centres undefined) [US20260034094, Compound 263], the IC50 was < 20 µM. In the case of COc1ccccc1-c1ccc(C(CCS(=N)(=O)CC[C@H](N)C(=O)O)C(F)(F)F)cc1 (some centres undefined) [US20260034094, Compound 264], the IC50 is reported as < 20 µM. For Cc1ccccc1-c1ccc(C(CCS(=N)(=O)CC[C@H](N)C(=O)O)C(F)(F)F)cc1 (some centres undefined) [US20260034094, Compound 265], the IC50 was < 20 µM. CC(C)c1ccccc1-c1ccc(C(CCS(=N)(=O)CC[C@H](N)C(=O)O)C(F)(F)F)cc1 (some centres undefined) [US20260034094, Compound 266] was tested, and the IC50 was < 20 µM. N=S(=O)(CCC(c1ccc(-c2ccccc2C(F)(F)F)cc1)C(F)(F)F)CC[C@H](N)C(=O)O (some centres undefined) [US20260034094, Compound 267] was tested, and the IC50 was < 20 µM. For COc1ccc(-c2ccc(C(CCS(=N)(=O)CC[C@H](N)C(=O)O)C(F)(F)F)cc2)c(Cl)c1 (some centres undefined) [US20260034094, Compound 268], the IC50 was < 20 µM. In the case of N=S(=O)(CCC(c1ccc(-c2ccc(Cl)cc2Cl)cc1)C(F)(F)F)CC[C@H](N)C(=O)O (some centres undefined) [US20260034094, Compound 269], the IC50 is reported as < 20 µM. For N=S(=O)(CCC(c1ccc(-c2ccc(O)cc2Cl)cc1)C(F)(F)F)CC[C@H](N)C(=O)O (some centres undefined) [US20260034094, Compound 270], the IC50 was < 20 µM. For N=S(=O)(CCC(c1ccc(-c2ccc(F)cc2Cl)cc1)C(F)(F)F)CC[C@H](N)C(=O)O (some centres undefined) [US20260034094, Compound 271], the IC50 was < 20 µM. For C#Cc1ccc(C(CCS(=N)(=O)CC[C@H](N)C(=O)O)C(F)(F)F)cc1 (some centres undefined) [US20260034094, Compound 272], the IC50 was < 20 µM. With N=S(=O)(CCC(c1cccc(C#Cc2ccccc2)c1)C(F)(F)F)CC[C@H](N)C(=O)O (some centres undefined) [US20260034094, Compound 273] the IC50 was < 20 µM. With Cc1cc(Cl)ccc1-c1ccc(C(CCS(=N)(=O)CC[C@H](N)C(=O)O)C(F)(F)F)cc1 (some centres undefined) [US20260034094, Compound 275] the IC50 was < 20 µM. For N=S(=O)(CCC(c1ccc(-c2ccc(Cl)cc2)cc1)C(F)(F)F)CC[C@H](N)C(=O)O (some centres undefined) [US20260034094, Compound 277], the IC50 was < 20 µM. With Cc1cc(F)ccc1-c1ccc(C(CCS(=N)(=O)CC[C@H](N)C(=O)O)C(F)(F)F)cc1 (some centres undefined) [US20260034094, Compound 278] the IC50 was < 20 µM. In the case of Cc1ccc(-c2ccc(C(CCS(=N)(=O)CC[C@H](N)C(=O)O)C(F)(F)F)cc2)c(Cl)c1 (some centres undefined) [US20260034094, Compound 279], the IC50 is reported as < 20 µM. Cc1ccc(-c2ccc(C(CCS(=N)(=O)CC[C@H](N)C(=O)O)C(F)(F)F)cc2)c(C)c1 (some centres undefined) [US20260034094, Compound 280] was tested, and the IC50 was < 20 µM. With N=S(=O)(CCC(c1ccc(-c2ccc(F)cc2O)cc1)C(F)(F)F)CC[C@H](N)C(=O)O (some centres undefined) [US20260034094, Compound 281] the IC50 was < 20 µM. In the case of N=S(=O)(CCC(c1ccc(-c2ccc(Cl)cc2O)cc1)C(F)(F)F)CC[C@H](N)C(=O)O (some centres undefined) [US20260034094, Compound 282], the IC50 is reported as < 20 µM. Cc1cc(Cl)ccc1-c1cccc(C(CCS(=N)(=O)CC[C@H](N)C(=O)O)C(F)(F)F)c1 (some centres undefined) [US20260034094, Compound 283] was tested, and the IC50 was < 20 µM. In the case of Cc1ccc(-c2cccc(C(CCS(=N)(=O)CC[C@H](N)C(=O)O)C(F)(F)F)c2)c(F)c1 (some centres undefined) [US20260034094, Compound 284], the IC50 is reported as < 20 µM. With Cc1ccc(-c2cccc(C(CCS(=N)(=O)CC[C@H](N)C(=O)O)C(F)(F)F)c2)cc1 (some centres undefined) [US20260034094, Compound 285] the IC50 was < 20 µM. In the case of Cc1cccc(-c2cccc(C(CCS(=N)(=O)CC[C@H](N)C(=O)O)C(F)(F)F)c2)c1 (some centres undefined) [US20260034094, Compound 286], the IC50 is reported as < 20 µM. N=S(=O)(CCC(c1cccc(-c2cccc(F)c2)c1)C(F)(F)F)CC[C@H](N)C(=O)O (some centres undefined) [US20260034094, Compound 287] was tested, and the IC50 was < 20 µM. N=S(=O)(CCC(c1cccc(-c2ccc(Cl)cc2Cl)c1)C(F)(F)F)CC[C@H](N)C(=O)O (some centres undefined) [US20260034094, Compound 288] was tested, and the IC50 was < 20 µM. Cc1ccc(-c2cccc(C(CCS(=N)(=O)CC[C@H](N)C(=O)O)C(F)(F)F)c2)cc1F (some centres undefined) [US20260034094, Compound 290] was tested, and the IC50 was < 20 µM.
